# Assay results from patent publication US20220229065A1, “SENSORS AND METHODS FOR RAPID MICROBIAL DETECTION” (BAMBU VAULT LLC, priority 2019, published 2022).
# Experiments:
# [1] = Additives that stabilize the dye within the particles; assay type: physicochemical; details: antioxidant additive in polymer matrix
# Text: The loading of dyes within the particles is as high as possible without degrading the cohesion of the polymer. The additives that stabilize the dye within the particles have been studied.
# β-lactamase blend = assay: Reaction of Formula (12) conjugate with β-lactamase (color change in vial); assay type: biochemical
# Description: (§1) In four different vials, compound 4 (1.0 mg in each vial) was dissolved in DMSO (0.3 mL). To one vial, 25 μL of β-lactamase blend was added. To another vial 25 μL PBS was added as the negative control. To the other two vials 25 μL of papain and chymotrypsin were added separately.
# papain = molecular target: T1, papain (Carica papaya, UniProt P00784); assay: Reaction of Formula (12) conjugate with papain (color change, selectivity control); assay type: biochemical; details: 1.0 mg in 0.3 mL DMSO + 25 μL papain
# T1 sequence (P00784 134-345): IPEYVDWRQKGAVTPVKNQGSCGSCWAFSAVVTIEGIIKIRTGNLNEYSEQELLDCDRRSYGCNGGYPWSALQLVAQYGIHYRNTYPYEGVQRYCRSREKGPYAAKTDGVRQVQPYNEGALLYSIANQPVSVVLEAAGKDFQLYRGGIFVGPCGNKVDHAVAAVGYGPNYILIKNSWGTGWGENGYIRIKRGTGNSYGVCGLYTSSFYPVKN
# Description: as §1
# chymotrypsin = assay: Reaction of Formula (12) conjugate with chymotrypsin (color change, selectivity control); assay type: biochemical; details: 1.0 mg in 0.3 mL DMSO + 25 μL chymotrypsin
# Description: as §1
# [2] = Retention of Epolight 1117 tetrakis aminium dye in particles during emulsification and evaporation; assay type: physicochemical; details: retention in the particles during emulsion and evaporation process; surfactant as labelled
# Text: In the emulsion method of encapsulation, a surfactant is necessary to help keep the emulsion stable. While Aerosol® TR-70 (sodium bis(tridecyl) sulfosuccinate) could be used as an emulsifier to prepare polymer particles encapsulating Epolight™ 1117 tetrakis aminium dye, TR-70 only provided limited stabilization effects on the tetrakis aminium dye. […] Reducing the amount of SDS in the aqueous phase led to lower Epolight™ 1117 retention and larger particle size (Table 2).
# [3] = 1.0 mg in 0.3 mL DMSO + 25 μL β-lactamase blend
structure (smiles),measurement,setting,value
"Cc1cc(C(C)(C)C)c(O)c(C)c1Cn1c(=O)n(Cc2c(C)cc(C(C)(C)C)c(O)c2C)c(=O)n(Cc2c(C)cc(C(C)(C)C)c(O)c2C)c1=O [Cyanox® 1790, 1,3,5-tris(4-tert-butyl-3-hydroxy-2,6-dimethylbenzyl)-1,3,5-triazine-2,4,6-(1H,3H,5H)-trione]",impact on dye stability within the particles,[1],positive impact
COc1ccc(COC(=O)C2=C(CSc3ccc4c(c3)Oc3cc(SCC5=C(C(=O)OCc6ccc(OC)cc6)N6C(=O)[C@H](NC(=O)Cc7ccccc7)[C@@H]6SC5)ccc3C43OC(=O)c4ccccc43)CS[C@H]3[C@@H](NC(=O)Cc4ccccc4)C(=O)N23)cc1 [compound 4],"color change with PBS (negative control, no enzyme)",β-lactamase blend; 1.0 mg in 0.3 mL DMSO + 25 μL PBS,did not change color at all
same,color change after β-lactamase addition (onset),β-lactamase blend; [3],started changing color from light yellow to brownish-red within a minute
same,time to very strong color change after β-lactamase addition,β-lactamase blend; [3],less than 5 minutes
same,color change after papain addition,papain,slightly changed color to light brown
same,color change after chymotrypsin addition,chymotrypsin,almost no color change even after 30 minutes
"CCCCCCCCCCCCOS(=O)(=O)[O-].[Na+] [Sodium dodecyl sulfate, sodium dodecyl sulfate]",% Epolight ™ 1117 Retention,[2],85-90%
"CCCCCCCCCCCCCOC(=O)CC(C(=O)OCCCCCCCCCCCCC)S(=O)(=O)O.[Na] (centres unmarked) [TR-70, sodium bis(tridecyl) sulfosuccinate]",% Epolight ™ 1117 Retention,[2],50%
